From the NIST ThermoML archive (doi:10.1016/j.jct.2016.04.014)

Conditions: Liquid, Vibrating tube method

CCCCCCCC [octane]
mass density [kg/m3]
Conditions | 323.15 K | 328.15 K | 333.15 K | 343.15 K | 353.15 K | 363.15 K | 373.15 K | 393.15 K | 413.15 K
100 kPa | – | 673.8 | 669.7 | 661.2 | 652.6 | 643.8 | 634.7 | 616.3 | –
1000 kPa | – | 674.7 | 670.6 | 662.2 | 653.7 | 645 | 636.3 | 618.1 | 599.3
5000 kPa | – | 678.7 | 674.8 | 666.6 | 658.4 | 650.1 | 641.8 | 624.3 | 606.6
10000 kPa | – | 683.5 | 679.7 | 671.9 | 664.1 | 656.1 | 648.2 | 631.8 | 615.1
15000 kPa | – | 688.1 | 684.5 | 677 | 669.4 | 661.9 | 654.4 | 638.8 | 623.1
20000 kPa | – | 692.5 | 689 | 681.8 | 674.5 | 667.3 | 660.1 | 645.3 | 630.6
25000 kPa | – | 696.7 | 693.2 | 686.3 | 679.3 | 672.4 | 665.5 | 651.5 | 637.4
30000 kPa | – | 700.7 | 697.3 | 690.6 | 683.9 | 677.2 | 670.6 | 657.1 | 643.8
35000 kPa | – | 704.4 | 701.1 | 694.6 | 688.1 | 681.6 | 675.3 | 662.3 | 649.6
40000 kPa | – | 707.9 | 704.7 | 698.4 | 692.1 | 685.8 | 679.6 | 667.1 | 654.8
45000 kPa | – | 711.3 | 708.1 | 701.9 | 695.7 | 689.6 | 683.6 | 671.4 | 659.5
50000 kPa | 717.4 | 714.4 | 711.3 | 705.2 | 699.1 | 693.1 | 687.3 | 675.3 | 663.6
55000 kPa | 720.3 | 717.3 | 714.2 | 708.2 | 702.3 | 696.3 | 690.5 | 678.8 | 667.2
60000 kPa | 722.9 | 719.9 | 716.9 | 711 | 705.1 | 699.2 | 693.5 | 681.8 | 670.2
